Literature values as cited in patent publication US20230157980A1, “METHODS FOR TREATING HEARING LOSS INCIDENT TO COCHLEAR IMPLANT SURGERY” (HOUGH EAR INSTITUTE, priority 2018, published 2023).

Test system: hearing loss caused by cochlear implantation

For `CC(=O)N[C@@H](CS)C(=O)O` [NAC, N-acetylcysteine], the hearing improvement (local NAC, 32 kHz, 4-week post insertion time point) is given as “barely significant hearing improvement”, the “protective effect on hearing” value (local NAC, lower frequencies (below 32 kHz)) is given as “no protective effect” and the “effect on improving hearing” value (local administration of NAC) is given as “only modest and transient effects”.
